Measurements taken from PubChem BioAssay AID651883 (Southern Research Specialized Biocontainment Screening …, 2012).

System: VEEV Trinidad donkey virus titer reduction, cell culture
Experiment: VEEV Trinidad donkey titer reduction, cell-based, Trinidad donkey strain (AID 651883)
Conditions: stronger effect = lower value

Row | SMILES | log virus titer change (at 5 µM) | log virus titer change (titer change, at 0.5 µM) | log virus titer change (titer change, at 1 µM) | log virus titer change (titer change, at 2 µM)
1 | CCN1CCN(C)CC1=Nc1ccc([N+](=O)[O-])cc1C(=O)Nc1ccccc1 | < -5.95 | < -5.95 | < -5.95 | < -5.95
2 | CN1CCN(C)C(=Nc2ccc([N+](=O)[O-])cc2C(=O)Nc2ccccc2)C1 | < -5.95 | < -5.95 | < -5.95 | < -5.95
3 | CCN1CCN(Cc2nc3ccc([N+](=O)[O-])cc3c(=O)n2-c2ccccc2F)CC1 | -5.84 | -0.518 | -2.39 | < -5.95
4 | COc1ccc(NC(=O)c2cc([N+](=O)[O-])ccc2N=C2CN(C)CCN2C)cc1 | < -5.95 | < -5.95 | < -5.95 | < -5.95
